Measurements published in US9434711B2 (Janssen Pharmaceutica, NV, priority 2007, dated 2016).

Molecular target: canine TRPM8 (Canis lupus familiaris, UniProt Q1A7N1)
Assay: In Vitro Canine TRPM8 Functional Assay (Ca2+ fluorescence, icilin activation)
Type: cell-based
Details: HEK293 cells stably expressing canine TRPM8, icilin activation; for inhibition at 0.2 µM: 0.2 μM compound, read-out: % Inh @ 0.2; for IC50: average of two or more determinations, read-out: IC50
Procedure, shortened: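 HEK293 cells stably expressing canine TRPM8 were loaded with Calcium 3 dye (35 min at 37 °C, then 25 min at room temperature). Compound was added and Ca2+ fluorescence was read for 5 min before icilin at a concentration giving about 80% maximal response. EC50/IC50 came from eight-point dose-response curves, quadruplicate wells.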

canine TRPM8, sequence (Q1A7N1 1-1104): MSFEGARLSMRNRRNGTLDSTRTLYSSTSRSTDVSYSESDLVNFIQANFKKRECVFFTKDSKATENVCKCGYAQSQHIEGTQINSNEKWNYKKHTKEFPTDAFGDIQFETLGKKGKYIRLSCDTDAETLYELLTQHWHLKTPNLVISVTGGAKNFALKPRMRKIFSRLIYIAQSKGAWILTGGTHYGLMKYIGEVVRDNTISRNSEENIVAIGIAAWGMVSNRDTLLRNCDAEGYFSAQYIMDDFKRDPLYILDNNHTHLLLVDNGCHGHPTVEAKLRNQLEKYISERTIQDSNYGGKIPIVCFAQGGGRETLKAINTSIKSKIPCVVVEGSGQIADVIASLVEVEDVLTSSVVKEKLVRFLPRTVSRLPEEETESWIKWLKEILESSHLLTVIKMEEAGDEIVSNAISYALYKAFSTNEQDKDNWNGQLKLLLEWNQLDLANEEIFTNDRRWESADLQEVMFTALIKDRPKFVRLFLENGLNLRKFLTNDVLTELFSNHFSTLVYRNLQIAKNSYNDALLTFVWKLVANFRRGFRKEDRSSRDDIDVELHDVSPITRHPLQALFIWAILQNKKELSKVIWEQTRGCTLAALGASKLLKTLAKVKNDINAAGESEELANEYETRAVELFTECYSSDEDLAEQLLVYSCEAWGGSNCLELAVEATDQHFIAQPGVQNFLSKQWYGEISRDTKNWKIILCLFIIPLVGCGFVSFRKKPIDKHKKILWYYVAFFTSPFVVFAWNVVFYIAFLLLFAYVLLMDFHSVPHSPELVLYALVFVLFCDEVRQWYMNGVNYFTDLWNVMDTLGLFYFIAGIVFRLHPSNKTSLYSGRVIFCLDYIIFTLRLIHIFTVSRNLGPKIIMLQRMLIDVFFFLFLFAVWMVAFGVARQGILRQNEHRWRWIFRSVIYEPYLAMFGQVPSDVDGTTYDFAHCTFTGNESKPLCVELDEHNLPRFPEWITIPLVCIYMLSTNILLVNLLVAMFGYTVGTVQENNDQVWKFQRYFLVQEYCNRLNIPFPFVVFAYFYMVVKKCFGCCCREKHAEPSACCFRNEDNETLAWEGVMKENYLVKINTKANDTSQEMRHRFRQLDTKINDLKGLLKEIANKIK

**Q.** With `COC(=O)c1cccc(S(=O)(=O)N(Cc2ccc(F)c(C(F)(F)F)c2)c2sc3ncccc3c2Cl)c1` [Compound 816, N-(3-Chloro-thieno[2,3-b]pyridin-2-yl)-N-(4-fluoro-3-trifluoromethyl-benzyl)-3-carbomethoxy-benzenesulfonamide] as the compound, how does the inhibition at 0.2 µM read?
**A.** 15%

**Q.** `O=S(=O)(c1ccccc1)N(CCCF)c1cc2ccccc2s1` [Compound 817, N-(Benzo[b]thiophen-2-yl)-N-(3-fluoro-propyl)-benzenesulfonamide] was tested. Which inhibition at 0.2 µM did it give?
**A.** 80%

**Q.** And the IC50?
**A.** 73 nM

**Q.** For `Cc1c(N(CCF)S(=O)(=O)c2ccccc2)sc2ccccc12` [Compound 818, N-(2-Fluoro-ethyl)-N-(3-methyl-benzo[b]thiophen-2-yl)-benzenesulfonamide], which inhibition at 0.2 µM is on record?
**A.** 92%

**Q.** And the IC50?
**A.** 62 nM

**Q.** How did the inhibition at 0.2 µM turn out when `Cc1c(N(CCCF)S(=O)(=O)c2ccccc2)sc2ccccc12` [Compound 819, N-(3-Fluoro-propyl)-N-(3-methyl-benzo[b]thiophen-2-yl)-benzenesulfonamide] was run?
**A.** 98%

**Q.** What about the IC50 of the same compound?
**A.** 21 nM

**Q.** What does the source list for `COC(C)c1c(N(CCCF)S(=O)(=O)c2ccccc2)sc2ccccc12` (stereo not drawn) [Compound 822, N-(3-Fluoro-propyl)-N-[3-(1-methoxy-ethyl)-benzo[b]thiophen-2-yl]-benzenesulfonamide]?
**A.** inhibition at 0.2 µM: 97%; IC50: 49 nM

**Q.** Which results are given for `COC(=O)c1ccc(S(=O)(=O)N(CCCF)c2sc3ccccc3c2C)cc1` [Compound 823, N-(3-Fluoro-propyl)-N-(3-methyl-benzo[b]thiophen-2-yl)-4-carbomethoxy-benzenesulfonamide]?
**A.** inhibition at 0.2 µM: 102%; IC50: 22 nM

**Q.** Which inhibition at 0.2 µM does the source give for `Cc1c(N(CCCF)S(=O)(=O)c2ccc(C(=O)O)cc2)sc2ccccc12` [Compound 824, N-(3-Fluoropropyl)-N-(3-methyl-benzo[b]thiophen-2-yl)-4-carboxy-benzenesulfonamide] here?
**A.** 98%

**Q.** And the IC50?
**A.** 38 nM

**Q.** What does the source list for `Cc1c(N(Cc2ccccc2)S(=O)(=O)c2ccc(F)c(F)c2)sc2ccccc12` [Compound 825, N-(Benzyl)-N-(3-methyl-benzo[b]thiophen-2-yl)-3,4-difluoro-benzenesulfonamide]?
**A.** inhibition at 0.2 µM: 89%; IC50: 25 nM

**Q.** How did the inhibition at 0.2 µM turn out when `Cc1c(N(Cc2ccc(F)cc2)S(=O)(=O)c2ccc(F)c(F)c2)sc2ccccc12` [Compound 826, N-(4-Fluoro-benzyl)-N-(3-methyl-benzo[b]thiophen-2-yl)-3,4-difluoro-benzenesulfonamide] was run?
**A.** 97%

**Q.** And the IC50?
**A.** 24 nM

**Q.** For `CCS(=O)(=O)N(Cc1ccc(F)c(OC)c1)c1sc2ccccc2c1C(C)O` (stereo not drawn) [Compound 827, N-(4-Fluoro-3-methoxybenzyl)-N-[3-(1-hydroxyethyl)-benzo[b]thiophen-2-yl]-ethanesulfonamide], which inhibition at 0.2 µM is on record?
**A.** 101%

**Q.** And the IC50?
**A.** 6.6 nM

**Q.** For `CCS(=O)(=O)N(Cc1ccc(F)c(OC)c1)c1cc2ccccc2s1` [Compound 828, N-(Benzo[b]thiophen-2-yl)-N-(4-fluoro-3-methoxy-benzyl)-ethanesulfonamide], which inhibition at 0.2 µM is on record?
**A.** 88%

**Q.** What about the IC50 of the same compound?
**A.** 42.7 nM

**Q.** `CCS(=O)(=O)N(Cc1ccnc(F)c1)c1sc2ccccc2c1C` [Compound 829, N-(2-Fluoro-pyridin-4-ylmethyl)-N-(3-methyl-benzo[b]thiophen-2-yl)-ethanesulfonamide] was tested. Which inhibition at 0.2 µM did it give?
**A.** 100%

**Q.** And the IC50?
**A.** 23 nM

**Q.** `CC(C)(O)c1c(N(CCCF)S(=O)(=O)c2ccccc2)sc2ccccc12` [Compound 830, N-(3-Fluoropropyl)-N-[3-(1-hydroxy-1-methyl-ethyl)-benzo[b]thiophen-2-yl]-benzenesulfonamide] was tested. Which inhibition at 0.2 µM did it give?
**A.** 102%

**Q.** What about the IC50 of the same compound?
**A.** 15 nM

**Q.** `Cc1c(N(CCCF)S(=O)(=O)c2ccc(F)c(F)c2)sc2ccccc12` [Compound 831, N-(3-Fluoro-propyl)-N-(3-methyl-benzo[b]thiophen-2-yl)-3,4-difluoro-benzenesulfonamide] was tested. Which inhibition at 0.2 µM did it give?
**A.** 91%

**Q.** And the IC50?
**A.** 50 nM

**Q.** Which inhibition at 0.2 µM does the source give for `COCc1c(N(CCCF)S(=O)(=O)c2ccccc2)sc2ccccc12` [Compound 832, N-(3-Fluoro-propyl)-N-(3-methoxymethyl-benzo[b]thiophen-2-yl)-benzenesulfonamide] here?
**A.** 76%

**Q.** What about the IC50 of the same compound?
**A.** 88 nM

**Q.** For `CC(=O)c1c(N(CCCF)S(=O)(=O)c2ccccc2)sc2ccccc12` [Compound 833, N-(3-Acetyl-benzo[b]thiophen-2-yl)-N-(3-fluoro-propyl)-benzenesulfonamide], which inhibition at 0.2 µM is on record?
**A.** 102%

**Q.** And the IC50?
**A.** 13 nM

**Q.** Which results are given for `O=S(=O)(c1cc(Br)ccc1Br)N(Cc1ccc(F)c(F)c1)c1sc2ccccc2c1CO` [Compound 834, 2,5-Dibromo-N-(3,4-difluoro-benzyl)-N-(3-hydroxymethyl-benzo[b]thiophen-2-yl)-benzenesulfonamide]?
**A.** inhibition at 0.2 µM: 87%; IC50: 123 nM

**Q.** Which inhibition at 0.2 µM does the source give for `CCS(=O)(=O)N(Cc1ccnc(F)c1)c1sc2ccccc2c1C(C)O` (stereo not drawn) [Compound 835, N-(2-Fluoropyridin-4-ylmethyl)-N-[3-(1-hydroxyethyl)-benzo[b]thiophen-2-yl]-ethanesulfonamide] here?
**A.** 89%

**Q.** And the IC50?
**A.** 55.1 nM

**Q.** How did the inhibition at 0.2 µM turn out when `CCS(=O)(=O)N(Cc1ccnc(F)c1)c1sc2ccccc2c1C(C)(C)O` [Compound 836, N-(2-Fluoro-pyridin-4-ylmethyl)-N-[3-(1-hydroxy-1-methyl-ethyl)-benzo[b]thiophen-2-yl]-ethanesulfonamide] was run?
**A.** 96%

**Q.** What about the IC50 of the same compound?
**A.** 24 nM

**Q.** Which inhibition at 0.2 µM does the source give for `CCS(=O)(=O)N(Cc1ccc(F)c(OC)c1)c1sc2ccccc2c1C(C)=O` [Compound 837, N-(3-Acetyl-benzo[b]thiophen-2-yl)-N-(4-fluoro-3-methoxy-benzyl)-ethanesulfonamide] here?
**A.** 103%

**Q.** What about the IC50 of the same compound?
**A.** 15 nM

**Q.** `CCS(=O)(=O)N(Cc1ccc(F)c(OC)c1)c1sc2ccccc2c1C(C)(C)O` [Compound 838, N-(4-Fluoro-3-methoxybenzyl)-N-[3-(1-hydroxy-1-methyl-ethyl)-benzo[b]thiophen-2-yl]-ethanesulfonamide] was tested. Which inhibition at 0.2 µM did it give?
**A.** 101%

**Q.** Which results are given for `CCS(=O)(=O)N(Cc1ccc(F)c(C(F)(F)F)c1)c1sc2ccccc2c1C(C)OC` (stereo not drawn) [Compound 839, N-(4-Fluoro-3-trifluoromethyl-benzyl)-N-[3-(1-methoxy-ethyl)-benzo[b]thiophen-2-yl]-ethanesulfonamide]?
**A.** inhibition at 0.2 µM: 101%; IC50: 15.9 nM

**Q.** What does the source list for `CCS(=O)(=O)N(Cc1c(F)cnc(F)c1F)c1sc2ccccc2c1C` [Compound 840, N-(3-Methyl-benzo[b]thiophen-2-yl)-N-(2,3,5-trifluoro-pyridin-4-ylmethyl)-ethanesulfonamide]?
**A.** inhibition at 0.2 µM: 71.1%; IC50: 98.1 nM

**Q.** For `Cc1c(N(CCF)S(=O)(=O)c2ccc(F)c(F)c2)sc2ccccc12` [Compound 841, N-(2-Fluoro-ethyl)-N-(3-methyl-benzo[b]thiophen-2-yl)-3,4-difluoro-benzenesulfonamide], which inhibition at 0.2 µM is on record?
**A.** 55%

**Q.** For `COC(=O)c1ccc(S(=O)(=O)N(CCCF)c2cc3ccccc3s2)cc1` [Compound 842, N-(Benzo[b]thiophen-2-yl)-N-(3-fluoro-propyl)-4-carbomethoxy-benzenesulfonamide], which inhibition at 0.2 µM is on record?
**A.** 63%

**Q.** How did the inhibition at 0.2 µM turn out when `COC(=O)c1ccc(S(=O)(=O)N(CCF)c2cc3ccccc3s2)cc1` [Compound 843, N-(Benzo[b]thiophen-2-yl)-N-(2-fluoro-ethyl)-4-carbomethoxy-benzenesulfonamide] was run?
**A.** 31%

**Q.** `O=S(=O)(c1ccccc1)N(CCF)c1cc2ccccc2s1` [Compound 844, N-(Benzo[b]thiophen-2-yl)-N-(2-fluoro-ethyl)-benzenesulfonamide] was tested. Which inhibition at 0.2 µM did it give?
**A.** 31%
